“And” between values parts separate entries of the source, which are not always exact repeats. Equal values may be shown once.
Tests used:
[1] = test system: LoVo colon carcinoma cells; assay: Cell viability, LDH release assay, LoVo; conditions: Homo sapiens, LoVo, 48 h
[2] = test system: HCT-116 cells; assay: Cell cycle assay (PI flow cytometry), HCT-116; format: cell-based, human; conditions: 30 µg/mL, 48 h, mean of n = 2 (Figure 1E); untreated control 47.37 ± 1.68%
Method: Cell proliferation depends on orderly progression through the phases of the cell cycle (G1−S−G2−M). Cytotoxic agents can impair the integrity of DNA, leading to checkpoint arrest at G1/S or G2/M, which subsequently blocks proliferation. To evaluate the impact of compound 3d on cell cycle distribution, colon carcinoma cells were treated with 30 µg/mL of 3d for 48 h, followed by DNA content analysis using flow cytometry. […] In contrast, in HCT-116 cells, 3d caused an accumulation in the G1 phase, reaching 60.17 ± 1.44% versus 47.37 ± 1.68% in untreated cells (Figure 1E). […]
(§1) medium served used as negative and positive controls, respectively. Percentages of viable cells […]
(§2) wells (final concentration of 100 μg/mL), compared to the negative control, and expressed as mean value (%) ± SD from two replicates. Graphing dose-response curves representing the compound […]
(§3) (HUVECs) at final concentration of 100 μg/mL . HUVECs were grown in Dulbecco’s Modified Eagle’s Medium supplemented with 10% FBS, 2 mM glutamine (Sigma Aldrich), 100 units/mL penicillin and […] streptomycin (Life Technologies; Paisley, UK).
(§4) S3.2.5. Cell cycle assay.
(§5) HCT-116 and LoVo cultures upon treatment with compound 3d. HCT-116 and LoVo carcinoma […]
(§6) μg/mL for 48 h. […] Then, cells […]
(§7) of stained cancerous cells were determined. […]
(§8) carcinoma cells treated with compound 3d was assessed using the TMRE Mitochondrial Membrane

[3] = test system: HCT-116 cells; assay: Intracellular ROS level (human ROS ELISA kit), HCT-116; format: cell-based; conditions: 30 µg/mL, 48 h
Method: To determine whether compound 3d induces oxidative stress, intracellular ROS levels were quantified after treatment (30 µg/mL, 48 h) using a human ROS ELISA kit.
A Human ROS ELISA Kit was used to measure the intracellular accumulation of ROS in the 3d-treated LoVo and HCT-116 cells. […]
as §1, §2, §3, §4, §5, §6
were fixed by mixing […] of 90% cold ethanol and stained with propidium iodide (PI) for 1 h at 37 °C. RNase A (10 mg/mL) was added in order to […] the ability of PI to bind only to DNA […]
S3.2.6. Annexin-V-FITC assay. […]
treatment with compound 3d. […]
as §7, §8

[4] = test system: HCT-116 cells; assay: Mitochondrial membrane potential (TMRE staining), HCT-116; format: cell-based, human; conditions: 30 µg/mL, 48 h
Method: To assess mitochondrial integrity, TMRE staining was used to measure ΔΨm.
The mitochondrial transmembrane potential was measured using a tetramethylrhodamine, ethyl ester (TMRE) mitochondrial membrane potential assay kit. […]
as §1, §2, §3, §4, §5, §6
were fixed by mixing […] of 90% cold ethanol and stained with propidium iodide (PI) for 1 h at 37 °C. […]
as §7
carcinoma cells treated with compound 3d was assessed using the TMRE Mitochondrial Membrane […]
for TMRE staining. TMRE was excited using a 488 nm laser and detected in the FL2 channel at 575 […]
S3.2.9. Quantification of the Expression Levels of Bax, Bcl-2 and Caspase-3 Genes […]

- IC50 ([1]; read-out: Mean IC50 Values in µM ± SD, LoVo cells): 157 µM
SMILES: COc1cc(/C=N/c2ncnc3sc4c(c23)CCCC4)cc(OC)c1OC [Compound 3d, (E)-N-(5,6,7,8-Tetrahydrobenzo[4,5]thieno[2,3-d]pyrimidin-4-yl)-1-(3,4,5-trimethoxyphenyl)methanimine]
- viability at 100 µg/mL ([1]; read-out: Mean % of viable cells ± SD, LoVo, 100 µg/mL, 48 h, LDH release assay): < 29%
- % of Cell population, HCT-116: %G1 [2]: 60.17 ± 1.44%
- ROS, Fold of control, HCT-116 [3]: 2.0
- [ROS] pg/mL ± SD, HCT-116 ([3]; control 143.5 ± 6.8, two independent experiments): 290.1 ± 12.7 pg/mL and 290.1 pg/mL
- Reduction of mitochondrial membrane potential (ΔΨm), HCT-116 cells [4]: 43.47 ± 0.81%

Reference: PMC12196476, “New Nitrogen-, Oxygen-, and Sulfur-Containing Heterocyclic Compounds as Anti-Colon Cancer Agents: Synthesis, Multitargeted Evaluations, Molecular Docking Simulations and ADMET Predictions” (Pharmaceuticals, 2025)
